Read-outs that look alike come from different tables or passages of the source.
B1: H1H21234N-N297Q-LP1 (conjugate)
VH: QVQLQESGPGLVKPSETLSLTCTVTGGSISRNYWSWIRQPPGKGLEWIGYIYYSGSIDYNPSLKSRVTISVDTSKNQFSLKLSSMTAADTAVYYCARDRWNWKYGMDVWGQGTTVIVSS
VL: EIVLTQSPGTLSLSPGERATLSCRASQTVRNNYLAWYHQKPGQAPRLLIYGASSRATGIPDRFSGSGSGTDFTLTISRLEPEDFTVYYCHQYGNSPWTFGQGTKMEIKR

Tests used:
Solubility in water = type: physicochemical
LXR [1] = system: T1, LXR; assay: Cell-based LXR luciferase reporter assay, LXR agonists (Example 16a); set-up: species or system human; conditions: Table 5a; for EC50: differentiated THP-1/LXR-Luc cells, 48 h; for S/N: highest RLU on dose response curve / RLU in untreated wells
T1 construct: EC50 (M); S/N; other: differentiate
Method: LXR agonists described herein were evaluated in a cell-based LXR responsive luciferase reporter assay. To generate the assay cell line, an LXR regulated luciferase reporter gene [Cignal Lenti LXR Reporter (luc) kit (Qiagen, Cat #CLS-001L)] was transduced into THP1 cells and the cells were selected for two weeks in puromycin. The lentivirus expresses the firefly luciferase gene under the control of a basal promoter and tandem repeats of the LXR transcriptional response element. The resulting cell line is referred to as THP1/LXR-Luc cells. For the assay, THP1/LXR-Luc cells were seeded onto 96-well plates at 40,000 cells/well in media containing RPMI supplemented with 10% FBS and penicillin/streptomycin and were then differentiated with 200 nM Phorbol Myristate Acetate (PMA) for 3 days. The media was subsequently removed and replaced with 80 μL of fresh media without PMA. Three-fold serial dilutions of free payloads were prepared in 100% DMSO, transferred to fresh growth media, and 20 μL were added to the cells at a final constant DMSO concentration of 0.2% and free payloads at final concentrations ranging from 100 nM to 0.015 nM. The last well in the plate served as blank control containing only the media and 0.2% DMSO (untreated well) and was plotted as a continuation of the 3-fold serial dilution. Forty-eight hours later, luciferase activity was determined after the addition of One-Glo™ reagent (Promega, Cat #E6130) to each well. Relative light units (RLUs) were measured on an Envision luminometer (PerkinElmer) and EC50 values were determined using a four-parameter logistic equation over a 10-point dose response curve (GraphPad Prism). The signal to noise (S/N) was determined by taking the ratio of the highest RLU on the dose response curve to the RLU in the untreated wells.

THP-1 = assay: Activation of cholesterol efflux (BODIPY-cholesterol) in differentiated THP1 macrophages; type: cell-based, human
Method: The ability of anti-MSR1-LXR agonist ADCs to activate cholesterol efflux in a human macrophage cell line (THP-1; ATTC Catalog #TIB-202) were assessed using a fluorescent cholesterol analog. […] Cells were differentiated into macrophages by treatment with 100 nM Phorbol-12 myristate 13-acetate (Sigma, Catalog #P8139), which was added to the media (described above), for 96 hours. […] Percentage of BODIPY-cholesterol efflux was calculated using the following formula: [fluorescence in acceptor media/(fluorescence in acceptor media+fluorescence in cell lysate)]×100.

[2] = Stability of isolated compound in buffer; type: physicochemical; conditions: HCl salt; even under basic buffer (pH>7)
Method: To a solution compound 141 (0.30 g, 0.33 mmol) in acetonitrile (5 mL) was added a solution of HCl in dioxane (4 N, 3 mL). The reaction mixture was stirred at room temperature for 3 hours until Boc was totally removed according to LCMS. The volatiles were removed, and the residue was purified by reversed phase flash chromatography (0-100% acetonitrile in water) to give compound 142 as HCl salt (0.19 g, 73% yield), as a white solid, which was not stable, even under basic buffer (pH>7). ESI m/z: 717.2 (M+H)^+.

LXR [3] = system: T1, LXR; assay: THP1/LXR-Luc reporter assay, anti-MSR1 LXR agonist ADCs (Example 17); type: cell-based, human; conditions: differentiated THP-1/LXR-Luc cells, Table 6
[4] = Homo sapiens, THP-1, after 24 hours, read-out: cholesterol efflux EC50
[5] = Homo sapiens, differentiated THP-1 macrophages, 24-hour treatment, Table 8, read-out: Cholesterol Efflux activation EC50

Row | Molecule | EC50 (LXR [1]) [nM] | S/N (LXR [1]) | other results
1 | CC(C)[C@H](NC(=O)[C@@H](CCCCNC(=O)COC1CCCCCc2c1nnn2CC1OC2OC3C(CO)OC(OC4C(CO)OC(OC5C(CO)OC(OC6C(CO)OC(OC7C(CO)OC(OC1C(O)C2O)C(O)C7O)C(O)C6O)C(O)C5O)C(O)C4O)C(O)C3O)NC(=O)CCOCCOCCOCCOCCNC(=O)CCC(=O)N1Cc2ccccc2C#Cc2ccccc21)C(=O)N[C@@H](CCCNC(N)=O)C(=O)Nc1ccc2c(c1)[C@@]1(C)CCC[C@](C)(C(=O)NC(=O)[C@@]3(C)CCC[C@]4(C)c5cc(N)ccc5CC[C@@H]34)[C@@H]1CC2 (stereo partly drawn) [LP2] | – | – | solubility (Solubility in water): < 100 µg/mL
2 | C[C@]1(C(=O)NC(=O)[C@@]2(C)CCC[C@]3(C)c4cc(O)ccc4CC[C@@H]23)CCC[C@]2(C)c3cc(N)ccc3CC[C@@H]12 [P1, (1S,4aS,10aR)-N-[(1S,4aS,10aR)-6-Amino-1,4a-dimethyl-1,2,3,4,4a,9,10,10a-octahydrophenanthrene-1-carbonyl]-6-hydroxy-1,4a-dimethyl-1,2,3,4,4a,9,10,10a-octahydrophenanthrene-1-carboxamide] | 0.191 | 11.9 | EC50 (THP-1; [4]): 0.02 nM; EC50 (THP-1; [5]): 0.02 nM
3 | C[C@]1(C(=O)NC(=O)[C@@]2(C)CCC[C@]3(C)c4cc(N)ccc4CC[C@@H]23)CCC[C@]2(C)c3cc(N)ccc3CC[C@@H]12 [P2, (1S,4aS,10aR)-6-Amino-N-((1S,4aS,10aR)-6-amino-1,4a-dimethyl-1,2,3,4,4a,9,10,10a-octahydrophenanthrene-1-carbonyl)-1,4a-dimethyl-1,2,3,4,4a,9,10,10a-octahydrophenanthrene-1-carboxamide] | 0.45 | 13.1 | EC50 (THP-1; [4]): 0.014 nM; EC50 (THP-1; [5]): 0.014 nM
4 | C[C@H](N)C(=O)Nc1ccc2c(c1)[C@@]1(C)CCC[C@](C)(C(=O)NC(=O)[C@@]3(C)CCC[C@]4(C)c5cc(N)ccc5CC[C@@H]34)[C@@H]1CC2 [P13, (1S,4aS,10aR)-N-[(1S,4aS,10aR)-6-amino-1,4a-dimethyl-1,2,3,4,4a,9,10,10a-octahydrophenanthrene-1-carbonyl]-6-[(2S)-2-aminopropanamido]-1,4a-dimethyl-1,2,3,4,4a,9,10,10a-octahydrophenanthrene-1-carboxamide] | 0.0788 | 11.9 | –
5 | C[C@]1(C(=O)NC(=O)[C@@]2(C)CCC[C@]3(C)c4cc(NC(=O)CO)ccc4CC[C@@H]23)CCC[C@]2(C)c3cc(N)ccc3CC[C@@H]12 [P14, (1S,4aS,10aR)-N-[(1S,4aS,10aR)-6-(2-hydroxyacetamido)-1,4a-dimethyl-1,2,3,4,4a,9,10,10a-octahydrophenanthrene-1-carbonyl]-6-amino-1,4a-dimethyl-1,2,3,4,4a,9,10,10a-octahydrophenanthrene-1-carboxamide] | 0.152 | 10.8 | –
6 | CC(C)(C)OC(=O)Nc1ccc2c(c1)[C@@]1(C)CCC[C@](C)(C(=O)NC(=O)[C@@]3(C)CCC[C@]4(C)c5cc(O)ccc5CC[C@@H]34)[C@@H]1CC2 [P15, tert-Butyl N-[(4bS,8S,8aR)-8-({[(1S,4aS,10aR)-6-hydroxy-1,4a-dimethyl-1,2,3,4,4a,9,10,10a-octahydrophenanthren-1-yl]formamido}carbonyl)-4b,8-dimethyl-4b,5,6,7,8,8a,9,10-octahydrophenanthren-3-yl]carbamate] | 72.9 | 8.8 | –
7 | C[C@H](NC(=O)[C@@H](N)CCC(=O)O)C(=O)Nc1ccc2c(c1)[C@@]1(C)CCC[C@](C)(C(=O)NC(=O)[C@@]3(C)CCC[C@]4(C)c5cc(O)ccc5CC[C@@H]34)[C@@H]1CC2 [P16, (4S)-4-Amino-4-{[(1S)-1-{[(4bS,8S,8aR)-8-({[(1S,4aS,10aR)-6-hydroxy-1,4a-dimethyl-1,2,3,4,4a,9,10,10a-octahydrophenanthren-1-yl]formamido}carbonyl)-4b,8-dimethyl-4b,5,6,7,8,8a,9,10-octahydrophenanthren-3-yl]carbamoyl}ethyl]carbamoyl}butanoic acid] | 0.508 | 11.5 | –
8 | C[C@]1(C(=O)NC(=O)[C@@]2(C)CCC[C@]3(C)c4cc(NC(=O)CO)ccc4CC[C@@H]23)CCC[C@]2(C)c3cc(O)ccc3CC[C@@H]12 [P17, (1S,4aS,10aR)-N-[(1S,4aS,10aR)-6-(2-hydroxyacetamido)-1,4a-dimethyl-1,2,3,4,4a,9,10,10a-octahydrophenanthrene-1-carbonyl]-6-hydroxy-1,4a-dimethyl-1,2,3,4,4a,9,10,10a-octahydrophenanthrene-1-carboxamide] | 1.03 | 12.5 | –
9 | C[C@]1(C(=O)NC(=O)[C@@]2(C)CCC[C@]3(C)c4cc(NC(=O)COCNC(=O)CN)ccc4CC[C@@H]23)CCC[C@]2(C)c3cc(O)ccc3CC[C@@H]12 [P18, (1S,4aS,10aR)-N-[(1S,4aS,10aR)-6-{2-[(2-aminoacetamido)methoxy]acetamido}-1,4a-dimethyl-1,2,3,4,4a,9,10,10a-octahydrophenanthrene-1-carbonyl]-6-hydroxy-1,4a-dimethyl-1,2,3,4,4a,9,10,10a-octahydrophenanthrene-1-carboxamide] | 2.78 | 11.5 | –
10 | C[C@]1(C(=O)NC(=O)[C@@]2(C)CCC[C@]3(C)c4cc(N)c(O)cc4CC[C@@H]23)CCC[C@]2(C)c3cc(O)ccc3CC[C@@H]12 [P19, (1S,4aS,10aR)-N-[(1S,4aS,10aR)-6-amino-7-hydroxy-1,4a-dimethyl-1,2,3,4,4a,9,10,10a-octahydrophenanthrene-1-carbonyl]-6-hydroxy-1,4a-dimethyl-1,2,3,4,4a,9,10,10a-octahydrophenanthrene-1-carboxamide] | 0.564 | 11.4 | –
11 | CNCCN(CCOCCO)C(=O)Oc1ccc2c(c1)[C@@]1(C)CCC[C@](C)(C(=O)NC(=O)[C@@]3(C)CCC[C@]4(C)c5cc(N)ccc5CC[C@@H]34)[C@@H]1CC2.Cl.Cl [compound 142, (4bS,8S,8aR)-8-((1S,4aS,10aR)-6-Amino-1,4a-dimethyl-1,2,3,4,4a,9,10,10a-octahydrophenanthrene-1-carbonylcarbamoyl)-4b,8-dimethyl-4b,5,6,7,8,8a,9,10-octahydrophenanthren-3-yl 2-(2-hydroxyethoxy)ethyl(2-(methylamino)ethyl)carbamate] | – | – | stability [2]: not stable
12 | B1 | – | – | EC50 (LXR [3]): 0.738 nM; S/N (LXR [3]): 11.8; EC50 (THP-1; after 24 hours, read-out: cholesterol efflux EC50): 0.098 nM
